This note sets out measurements from US6797712B2, “Substituted amino-furan-2-yl-acetic acid and amino-thien-2-yl-acetic acid derivatives and their use in the treatment of migraine and pain” (Gruenenthal GmbH, priority 2000, dated 2004).

pKi: −log10 of the molar value. Counter-ions that a name gives are not always drawn.

This assay deals with T1, glycine binding site of the NMDA receptor channel (Rattus norvegicus, UniProt P35439).
T1 construct: from tissue; host or cells: rat brain cortex and hippocampus membrane homogenate (male Wistar rats)
Nature of the assay: Receptor binding studies, displacement of (3H)-MDL 105,519 from brain membrane homogenates. The settings on record: for inhibition at 10 µM / Displacement (%, 10 μmol): percentage of bonded radioactive ligand (3H)-MDL 105,519 displaced from specific binding at 10 μM of test substance; for inhibition at 10 µM: read-out: Displacement (%, 10 μmol); for pKi: glycine binding site of the NMDA receptor channel, rat cortex/hippocampus membrane homogenate, 1 nmol/l (3H)-MDL 105,519, from IC50 by Cheng-Prussoff equation. Here is the method: The tests to determine the affinity of the compounds of formula (I) according to the invention for the glycine binding site of the NMDA receptor channel were carried out on brain membrane homogenates (homogenate of cortex and hippocampus area from the brains of male rats, Wistar strain) (B. M. Baron, B. W. Siegel, B. L. Harrison, R. S. Gross, C. Hawes and P. Towers, Journal of Pharmacology and Experimental Therapeutics, (1996), Vol. 279, p. 62).
To that end, cortex and hippocampus from freshly removed rat brains were exposed and homogenized, while cooling with ice, in 5 mmol/l of TRIS acetate buffer, […] of saccharose pH 7.4 (10 ml/g fresh weight) using a Potter homogenizer (Braun/Melsungen; 10 piston strokes at 500 rpm) and then centrifuged for 10 minutes at 1000 g and 4° C. The first supernatant was collected and the sediment was again homogenized, while cooling with ice, with 5 mmol/l of TRIS acetate buffer, 0.32 mol/l of saccharose pH 7.4 (5 ml/g original fresh weight) using the Potter homogenizer (10 piston strokes at 500 rpm) and centrifuged for 10 minutes at 1000 g and 4° C. The resulting supernatant was combined with the supernatant from the first centrifugation and centrifuged for 20 minutes at 17,000 g and 4° C. The supernatant from this centrifugation was discarded and the membrane sediment was taken up in 5 mmol/l of TRIS acetate buffer pH 8.0 (20 ml/g original fresh weight) and homogenized with 10 piston strokes at 500 rpm.
The membrane homogenate was then incubated for one hour at 4° C. and centrifuged for 30 minutes at 50,000 g and 4° C. The supernatant was discarded and the centrifuge tube containing the membrane sediment was closed with Parafilm and frozen for 24 hours at −20° C. On the following day, the membrane sediment was thawed and taken up in 5 mmol/l of ice-cold TRIS acetate buffer, 0.1% saponin (w/v) pH 7.0 (10 ml/g original fresh weight) and homogenized with 10 piston strokes at 500 rpm and then centrifuged for 20 minutes at 50,000 g and 4° C. The resulting supernatant was discarded and the sediment was taken up in a small volume in 5 mmol/l of TRIS acetate buffer pH 7.0 (about 2 ml/g original fresh weight) and again homogenized with 10 piston strokes at 500 rpm. After determination of the protein content, the membrane homogenate was adjusted to a protein concentration of 10 mg of protein/ml with 5 mmol/l TRIS acetate buffer pH 7.0, and was frozen in aliquots until testing.
For the receptor binding test, aliquots were thawed, diluted 1:10 with 5 mmol/l of TRIS acetate buffer pH 7.0, homogenized, while cooling with ice, with 10 piston strokes at 500 rpm using the Potter homogenizer (10 piston strokes at 500 rpm) and centrifuged for 60 minutes at 55,000 g and 4° C. The supernatant was decanted off and the membrane sediment was adjusted to a protein concentration of 1 mg/ml with 50 mmol/l of ice-cold TRIS acetate buffer pH 7.0 and again homogenized with 10 piston strokes at 500 rpm and maintained in suspension in an ice-bath while stirring with a magnetic stirrer. Of that membrane homogenate, 100 μl per 1 ml batch were used in the receptor binding test (0.1 mg protein/ml in the final batch).
In the binding test, 50 mmol/l of TRIS acetate buffer pH 7.0 were used as the buffer, and 1 nmol/l of (^3H)-MDL 105,519 (B. M. Baron et al. 1996) was used as the radioactive ligand. The proportion of non-specific binding was determined in the presence of 1 mmol/l of glycine.
In further batches, the compounds according to the invention were added in series of concentrations and the displacement of the radioactive ligand from its specific binding to the glycine binding site of the NMDA receptor channel was determined. The respective triplicate batches were incubated for 120 minutes at 4° C. and then harvested by means of filtration through glass fiber filter mats (GF/B) for determination of the radioactive ligand bonded to the membrane homogenate. […]

As usually defined, the pKi is −log10 of the Ki, conventionally taken in molar units. A lower pKi goes with a high Ki.

For `O=C(O)C(Nc1cccc(Cl)c1)c1ccc(CS)o1` (centres unmarked) [Example 113, (3-Chloro-phenylamino)-(5-mercaptomethyl-furan-2-yl)-acetic acid], the inhibition at 10 µM turned out to be 99%.
Turning to `CC(=O)SCc1ccc(C(Nc2cc(Cl)cc(Cl)c2)C(=O)O)o1` (centres unmarked) [Example 110, (5-Acetylsulfanylmethyl-furan-2-yl)-(3,5-dichloro-phenylamino)-acetic acid], the negative logarithm of the Ki (pKi) was 6.92 and the inhibition at 10 µM is 104%.
As for `O=C(O)C(Nc1cc(Cl)cc(Cl)c1)c1ccc(CSSCc2ccco2)o1` (centres unmarked) [Example 120, (3,5-Dichlorophenylamino)-[5-(furan-2-ylmethyldisulfanylmethyl)-furan-2-yl]-acetic acid], the negative logarithm of the Ki (pKi) is 6.33 and the inhibition at 10 µM turned out to be 103%.
As to `CSSCc1ccc(C(Nc2cc(Cl)cc(Cl)c2)C(=O)O)o1` (centres unmarked) [Example 121, (3,5-Dichlorophenylamino)-(5-methyldisulfanylmethyl-furan-2-yl)-acetic acid], the pKi is 6.54 and the inhibition at 10 µM stood at 106%.
As for `CSCc1ccc(C(Nc2cc(Cl)cc(Cl)c2)C(=O)O)o1` (centres unmarked) [Example 106, (3,5-Dichloro-phenylamino)-(5-methylsulfanylmethyl-furan-2-yl)-acetic acid], the “Displacement (%, 10 μmol)” value amounted to 65%.
In the case of `O=C(O)C(Nc1cc(Cl)cc(Cl)c1)c1ccc(CO)s1` (centres unmarked) [Example 109, (3,5-Dichloro-phenylamino)-(5-hydroxymethyl-thiophen-2-yl)-acetic acid], the inhibition at 10 µM turned out to be 66%.
With `COc1ccc(NC(C(=O)O)c2cccs2)cc1` (centres unmarked) [(4-methoxy-phenylamino)-thien-2-yl-acetic acid, reference compound], for the setting “general statement in the description, no values”, the “binding to the glycine binding site of the NMDA ion channel (statement in words)” value is on record as “bind selectively to the glycine binding site of the NMDA ion channel”.
As for `Cc1csc(C(Nc2cc(Cl)cc(Cl)c2)C(=O)O)c1` (centres unmarked) [Example 126, (3,5-Dichlorophenylamino)-(4-methylthiophen-2-yl)-acetic acid], the pKi was 4.81 and the inhibition at 10 µM is 52%.
On to `CCc1ccc(C(Nc2cc(Cl)cc(Cl)c2)C(=O)O)s1` (centres unmarked) [Example 111, (3,5-Dichloro-phenylamino)-(5-ethyl-thiophen-2-yl)-acetic acid], for which the inhibition at 10 µM came out at 44%.
Still for that read-out and setting: then `O=C(O)C(Nc1ccc(Cl)c(Cl)c1)c1ccc(CS)o1` (centres unmarked) [Example 114, (3,4-Dichloro-phenylamino)-(5-mercaptomethyl-furan-2-yl)-acetic acid], with 45%.
As to `O=C([O-])C(Nc1cc(Cl)cc(Cl)c1)c1ccc(Cl)s1.[Na+]` (centres unmarked) [Example 127-Na, (3,5-Dichlorophenylamino)-(5-chlorothiophen-2-yl)-acetic acid sodium salt], the “Displacement (%, 10 μmol)” value was determined as 72%.
`Cc1ccc(C(Nc2cc(Cl)cc(Cl)c2)C(=O)O)s1` (centres unmarked) [Example 125-Na, (3,5-Dichlorophenylamino)-(5-methylthiophen-2-yl)-acetic acid sodium salt]: the pKi was 5.30 and the inhibition at 10 µM turned out to be 63%.
Regarding `CSCc1ccc(C(Nc2cc(Cl)cc(Cl)c2)C(=O)O)o1.Cl` (centres unmarked) [Example 106-HCl, (3,5-Dichloro-phenylamino)-(5-methylsulfanylmethyl-furan-2-yl)-acetic acid hydrochloride], the “Displacement (%, 10 μmol)” value was determined as 91%.
With `O=C(O)C(Nc1cc(Cl)cc(Cl)c1)c1ccc(CS)o1` (centres unmarked) [Example 107, (3,5-Dichloro-phenylamino)-(5-mercaptomethyl-furan-2-yl)-acetic acid], the inhibition at 10 µM worked out at 101%.
Consider `CSCc1ccc(C(Nc2cc(Cl)cc(Cl)c2)C(=O)O)o1.[Na]` (centres unmarked) [Example 106-Na, (3,5-Dichloro-phenylamino)-(5-methylsulfanylmethyl-furan-2-yl)-acetic acid sodium], for which the negative-log Ki (pKi) was 5.53 and the “Displacement (%, 10 μmol)” value was determined as 78%.
On to `CC(=O)OCc1ccc(C(Nc2cc(Cl)cc(Cl)c2)C(=O)O)o1` (centres unmarked) [Example 123, (5-Acetoxymethylfuran-2-yl)-(3,5-dichlorophenylamino)-acetic acid], for which the pKi was 5.30 and the inhibition at 10 µM came to 60%.
Regarding `O=C(O)C(Nc1cc(Cl)cc(Cl)c1)c1ccc(Cl)s1` (centres unmarked) [Example 127, (5-Chlorothiophen-2-yl)-(3,5-dichlorophenylamino)-acetic acid], the pKi was 5.59 and the inhibition at 10 µM was 68%.
On to `CC(C)(C)c1ccc(C(Nc2cc(Cl)cc(Cl)c2)C(=O)O)o1` (centres unmarked) [Example 119-HCl, (5-tert-Butylfuran-2-yl)-(3,5-dichlorophenylamino)-acetic acid hydrochloride], for which the inhibition at 10 µM is 91%.
